Assay results taken from US12171737B2, “Methods for reducing the symptoms of neurodegenerative disease in a human” (priority 2021, dated 2024).

Assays:
[1] = system: patient with Parkinsonism; experiment: Case reports: skin application in patients with Parkinsonism/dystonia (Examples 3-5); type: in vivo, human
Excerpt: This person presented with left hemiparetic neglect, reduced finger fine motor capacity, flat affect, tremor, and reduced extended arm wrist rotation and loss of shoulder extension and abduction. The diagnosis of Parkinsonism on clinical grounds was confirmed at a major hospital chain neurology clinic. […] Their extended wrist rotation range measured 60 degrees initially; by six months this approached 200 degrees. At 3 months they could extend their shoulder quickly to 180 degrees (initially slowly to 60 degrees.) This functionality continues to be maintained over 15 months of intermittent applications of salve and ingestion of isomerized safflowerate.
This person presented while on Sinemet prescribed by a major hospital chain neurology clinic for Parkinsonism. […] They also had reduced head rotation with painful limitation.
This individual stopped his Sinemet, continued every other day application of the Example 12 and oral intake of isomerized safflowerate. Improvement has maintained for 4 months, with rare intermittent right-hand tremors after a day of heavy farming.
This person sustained the onset of right arm dystonic Parkinsonism several months after a traumatic brain injury. […] Personal life issues prevented further applications.
The patient was instructed to rotate, extend and open their hand while they were actively having right hand-arm Parkinsonism tremors. They were unable to either rotate their wrist or open their hand voluntarily initially as shown on the left picture so they attempt to force it open with their left hand. The patient was treated with application of the salve over their right arm, subocciput, and upper torso bilaterally.

[2] = system: gram positive and negative bacteria as well as fungi including Malassezia, Aspergillus, and Candida; experiment: Anti-microbial capacity of K-CLA; type: cell-based
[3] = system: patients having dystonia with traumatic brain injury; experiment: Video capture of wrist rotation before and after application, five patients with Dystonia/Parkinsonism (Example 9); type: in vivo, human; conditions: for increase in external wrist rotation / increase in internal wrist rotation: FIG. 1
Excerpt: Five patients aged 42-67 using recorded videos of hand movement Dystonia/Parkinsonism before and after application of Example 12 for 5-10 days. Four had bilateral symptoms. Using video capture to measure the rotation of their wrists before and after application of the […]. […] This improvement has been sustained with intermittent continuing application of the salve to the skin of the forearm and shoulder for 3 months.
Subsequently, I have recorded videos of hand movement in patients with Dystonia/Parkinsonism before and after similar treatment. Several had bilateral symptoms. Video capture was used to measure the rotation of their wrists before and after application of the K-CLA 0.1-12%. […] This improvement has been sustained with intermittent continuing application of the salve to the skin of the forearm and shoulder. […] Application of a broad spectrum antimicrobial with profound antifungal capacity can reverse symptoms of Dystonia/Parkinsonism.

[4] = system: malassezia species, candida, aspergillus and many gram positive and negative bacteria; conditions: Changaris and Sullivan 2019; cited from earlier work
[5] = system: patient with Alzheimer's; experiment: Case reports: skin application in Alzheimer's syndrome (Examples 7, 8); type: in vivo, human; conditions: patient with early Alzheimer's disease and cortical atrophy
[6] = system: patient with dystonia; experiment: Case reports: skin application in patients with dystonia (Examples 1, 2); type: in vivo, human; conditions: Example 1 patient, right arm dystonia; salve applied
Excerpt: Over the years, I observed progression of dystonia of a patient. […] An extended forearm wrist rotation was used to identify and measure progression of dystonia. A normal human can rotate the wrist of the fully extended arm more than 270 degrees. The patient was falling to 200 degrees with increasing pain in the opposing forearm muscles.
Last spring, I applied a salve of K-CLA, potassium-conjugated linoleic acid, to potentially kill the microbial residents in the skin causing the dystonia.
This person presented with right arm dystonia after complaints of hand incoordination worsening with vibration. Muscle tenderness and loss of range of motion of extended-wrist rotation defined the clinical diagnosis confirmed by pattern EMG (Nicolet) within a university neurology clinic. The Potassium safflowerate of Example 11 as a salve. […] The improved capacity including reduction in hand tremor has continued with application of Example 10 and 11 application every 2-7 days.

[7] = system: bacteria and fungi (cross-kingdom); conditions: hospital disinfection; Changaris and Carenbauer 2022; cited from earlier work

Compound	skin reactions ([1]; hemiparetic Parkinsonism patient and early Alzheimer's patient, skin application)	acute hemiparetic Parkinsonism ([1]; patient who refused conventional medications, salve)	anti-microbial capacity [2]	extended wrist rotation ([3]; applied as salve, within weeks)	increase in external wrist rotation ([3]; first patient)	increase in internal wrist rotation ([3]; first patient)	capacity to draw, patient's own impression ([3]; one patient, an architect)	increase in external wrist rotation ([3]; second patient)	increase in internal wrist rotation ([3]; second patient)	biocidal capacity [4]	mental acuity and emotionality [5]	dystonic symptoms [6]	cross-kingdom anti-bacterial and anti-fungal efficacy [7]	right arm dystonic Parkinsonism ([1]; Example 5, person, as tolerated)
potassium-conjugated linoleic acid [K-CLA]	intense skin reactions	improving acute hemiparetic Parkinsonism with both strength and agility	extraordinary anti-microbial capacity	measurable improvement	~20%	~30%	capacity to draw has improved	~10%	~20%	biocidal capacity against at least four malassezia species	clinical improvement in mental acuity and emotionality	Most of the dystonic symptoms were resolved	sufficient to satisfy the United States Environmental Protection Agency requirements for hospital disinfection	–
C#CCN(C)[C@H](C)Cc1ccccc1 [selegiline, reference compound]	–	–	–	–	–	–	–	–	–	–	–	–	–	without significant improvement
